The test system of test [1] is acetylcholinesterase. In words: ex vivo inhibition acetylcholinesterase assay (modified Ellman). The class given is in vivo, male Wistar rats. A general note: DTNB colorimetry detects thiols as they appear.
Test [2] has as its target T1, acetylcholinesterase (Rattus norvegicus, UniProt P37136).
T1 construct: corpora striata dissected free, weighed and homogenized in 19 volumes; from tissue; host or cells: corpora striata of male Wistar rats, crude homogenate
T1 sequence (P37136 32-614): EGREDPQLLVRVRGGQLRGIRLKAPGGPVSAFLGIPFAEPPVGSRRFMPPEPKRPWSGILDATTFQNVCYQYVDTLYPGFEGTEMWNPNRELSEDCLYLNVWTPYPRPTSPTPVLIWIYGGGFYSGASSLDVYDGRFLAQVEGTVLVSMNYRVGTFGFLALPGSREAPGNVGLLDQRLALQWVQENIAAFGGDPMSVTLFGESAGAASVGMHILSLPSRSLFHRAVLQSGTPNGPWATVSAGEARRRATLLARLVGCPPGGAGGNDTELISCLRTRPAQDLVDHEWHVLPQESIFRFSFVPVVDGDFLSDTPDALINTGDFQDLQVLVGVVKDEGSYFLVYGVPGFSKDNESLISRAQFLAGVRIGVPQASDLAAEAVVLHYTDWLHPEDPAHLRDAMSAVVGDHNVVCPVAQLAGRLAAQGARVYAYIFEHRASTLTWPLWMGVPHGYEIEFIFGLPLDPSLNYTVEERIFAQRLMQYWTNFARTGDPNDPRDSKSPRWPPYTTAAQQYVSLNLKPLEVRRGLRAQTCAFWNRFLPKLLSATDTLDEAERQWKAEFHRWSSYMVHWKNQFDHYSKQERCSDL
In words: in vitro inhibition of acetylcholinesterase assay (modified Ellman). It is filed as biochemical, Male Wistar rat (corpora striata homogenate). Here is the method:
In this assay, a modification of a test described by G. L. Ellman, et al., Biochemical Pharmacology, 7, 88 (1961), the following reagents are prepared and employed:
1.0.05M Phosphate Buffer (pH 7.2)
A solution of monobasic sodium phosphate monohydrate (6.85 g) in distilled water (100 ml) is added to a solution of dibasic sodium phosphate heptahydrate (13.4 g) and distilled water (100 ml) until a pH of 7.2 was attained. The solution was diluted 1 to 10 with distilled water.
The 0.05M Phosphate Buffer (pH 7.2) was added to acetylthiocholine (198 mg) to a total volume of 100 ml, i.e., a quantity sufficient (gs) to 100 ml.
3. 5,5-Dithiobisnitrobenzoic acid in Buffer
The 0.05M Phosphate Buffer (pH 7.2) was added to 5,5-dithiobisnitrobenzoic acid to a total volume of 100 ml, i.e., a quantity sufficient (gs) to 100 ml.
4. Stock Solution of Drug
A 2 millimolar stock solution of the test drug is prepared in a quantity sufficient of either acetic acid or dimethyl sulfoxide to volume with 5,5-Dithiobisnitrobenzoic Acid in Buffer. Stock Solution of Drug is serially diluted (1:10) so that the final cuvette concentration is 10^-4 molar.
Male Wistar rates are decapitated, brains rapidly removed, corpora striata dissected free, weighed and homogenized in 19 volumes (approximately 7 mg protein/ml) of 0.05M phosphate Buffer (pH 7.2) using a Potter-Elvehjem homogenizer. A 25 μl aliquot of this suspension is added to 1 ml of the vehicle or various concentrations of the test drug and preincubated for 10 minutes at 37° C. Enzyme activity is measured with a Beckman DU-50 spectrophotometer with the following software and instrument settings:
1. Kinetics Soft-Pac™ Module #598273;
6. Cuvettes--2 ml cuvettes using auto 6-sampler;
7. Blank--1 for each substrate concentration;
8. Interval time--15 seconds (15 or 30 seconds for kinetics);
9. Total time--5 minutes (5 or 10 minutes for kinetics);
14 12. Slope--increasing;
13. Results--yes (gives slope); and
Reagents are added to the blank and sample cuvettes as follows:
1. Blank: 0.8 ml 5,5-Dithiobisnitrobenzoic Acid 0.8 ml Substrate in Buffer
2. Control: 0.8 ml 5,5-Dithiobisnitrobenzoic Acid/Enzyme 0.8 ml Substrate in Buffer
3. Drug: 0.8 ml 5,5-Dithiobisnitrobenzoic Acid/Drug/Enzyme 0.8 ml Substrate in Buffer
Blank values are determined for each run to control for non-enzymatic hydrolysis of substrate and these values are automatically subtracted by the Kindata program available on kinetics soft-pac module. This program also calculates the rate of absorbance change for each cuvette.
Substrate concentration is 10 millimolar diluted 1:2 in assay yielding final concentration of 5 millimolar. 5,5-Dithiobisnitrobenzoic acid concentration is 0.5 millimolar yielding 0.25 millimolar final concentration. [formula]
IC50 values are calculated from log-probit analysis

`CNC(=O)Oc1cccc(C2CCCN2CCc2ccccc2)c1` (stereo not shown) [3-[1-(2-Phenylethyl)-2-pyrrolidinyl]phenyl methylcarbamate]: the “Inhibition of Acetylcholinesterase Activity Percent Inhibition @ 1 hr” value in test [1] (10 mg/kg per os, forebrain) is on record as 25%.
In turn, `CNC(=O)Oc1cccc(C2CCCN2CCN2CCOCC2)c1` (stereo not shown) [3-{1-[2-(4-Morpholinyl)ethyl]-2-pyrrolidinyl}phenyl methylcarbamate bis-fumarate] yielded an IC50 in test [2] of 529 nM.
`CNC(=O)Oc1cccc(C2CCC(=O)N2CCN2CCOCC2)c1` (stereo not shown) [3-{1-[2-(4-Morpholinyl)ethyl]-5-oxo-2-pyrrolidinyl}phenyl methylcarbamate] yielded an IC50 in test [2] of 18700 nM.
Still for that read-out and setting: next, `O=C(Oc1cccc(C2CCCN2Cc2ccncc2)c1)N1CCc2ccccc2C1` (stereo not shown) [3-[1-(4-Pyridinylmethyl)-2-pyrrolidinyl]phenyl 3,4-dihydro-2(1H)-isoquinoline carbamate hemifumarate]: 568 nM.
On to `CNC(=O)Oc1cccc(C2CCCN2Cc2ccncc2)c1` (stereo not shown) [3-[1-(4-Pyridinylmethyl)-2-pyrrolidinyl]phenyl methylcarbamate], for which, in test [1] (10 mg/kg per os, striatum), the “Inhibition of Acetylcholinesterase Activity Percent Inhibition @ 1 hr” value is reported as 80%. Half-maximal inhibition in test [2] (IC50) required 24.4 nM.
As to `CNC(=O)Oc1ccc2c(c1)[C@]1(C)CCN(C)[C@@H]1N2C` [physostigmine, reference compound], the “Inhibition of Acetylcholinesterase Activity Percent Inhibition @ 1 hr” value in test [1] (0.3 mg/kg intraperitoneal, forebrain) was 27%.
Take `CNC(=O)Oc1cccc(C2CCC(=O)N2Cc2ccncc2)c1` (stereo not shown) [3-[1-((4-Pyridinyl)methyl)-5-oxo-2-pyrrolidinyl]phenyl methylcarbamate hemifumarate]: the IC50 in test [2] was 1440 nM.
As for `CNC(=O)Oc1cccc(C2CCCN2Cc2cccnc2)c1` (stereo not shown) [3-[1-(3-Pyridinylmethyl)-2-pyrrolidinyl]phenyl methylcarbamate], the “Inhibition of Acetylcholinesterase Activity Percent Inhibition @ 1 hr” value in test [1] (10 mg/kg per os, forebrain) was 51%.
`CCN1CCCC1c1cccc(OC(=O)NC)c1` (stereo not shown) [3-[1-Ethyl-2-pyrrolidinyl]phenyl methylcarbamate]: the “Inhibition of Acetylcholinesterase Activity Percent Inhibition @ 1 hr” value in test [1] (1 mg/kg per os, forebrain) is given as 73%.

The term IC50 denotes the concentration that gives 50% inhibition. Low readings indicate greater potency in that assay, high ones weaker potency in that assay.

These data come from US5405845A, “(Pyrrolidinyl)phenyl carbamate derivatives and use” (priority 1994, dated 1995).
